These results are taken from PubChem BioAssay AID1259407 (Chemical Carcinogenesis Research Information System (CCRIS), 2018).

This series deals with CCRIS mutagenicity, Ames/micronucleus/aberration tests. Description: CCRIS mutagenicity studies.
Setting [1] is: Test System: AMES SALMONELLA TYPHIMURIUM, Strain/Indicator: TA98, Metabolic Activation: NONE, Method: STANDARD PLATE.
Setting [2] is: Test System: AMES SALMONELLA TYPHIMURIUM, Strain/Indicator: TA98, Metabolic Activation: RAT, LIVER, S-9, AROCLOR 1254, Method: STANDARD PLATE.
[3] abbreviates: Test System: AMES SALMONELLA TYPHIMURIUM, Strain/Indicator: TA100, Metabolic Activation: NONE, Method: STANDARD PLATE.
The mark [4] stands for this setting: Test System: AMES SALMONELLA TYPHIMURIUM, Strain/Indicator: TA100, Metabolic Activation: RAT, LIVER, S-9, AROCLOR 1254, Method: STANDARD PLATE.
Where [5] appears, read: Test System: AMES SALMONELLA TYPHIMURIUM, Strain/Indicator: TA1535, Metabolic Activation: NONE, Method: STANDARD PLATE.
Setting [6] is: Test System: AMES SALMONELLA TYPHIMURIUM, Strain/Indicator: TA1537, Metabolic Activation: NONE, Method: STANDARD PLATE.
Where [7] appears, read: Test System: AMES SALMONELLA TYPHIMURIUM, Strain/Indicator: TA1538, Metabolic Activation: NONE, Method: STANDARD PLATE.

Structures are written as SMILES. The source made the active and inactive calls. How the calls were made is not given here.

Turning to `O=c1oc2ccc([N+](=O)[O-])cc2c2ccccc12`, the mutagenic call runs as follows: (Test System: AMES SALMONELLA TYPHIMURIUM, Strain/Indicator: TA98(1,8-DNP6), Metabolic Activation: NONE, Method: MICROSUSPENSION) “active; positive”; (Test System: AMES SALMONELLA TYPHIMURIUM, Strain/Indicator: TA98(1,8-DNP6), Metabolic Activation: NONE, Method: PREINCUBATION) “active; positive”; (Test System: AMES SALMONELLA TYPHIMURIUM, Strain/Indicator: TA98(1,8-DNP6), Metabolic Activation: NONE, Method: STANDARD PLATE) “active; positive”; (Test System: AMES SALMONELLA TYPHIMURIUM, Strain/Indicator: TA98(NR), Metabolic Activation: NONE, Method: MICROSUSPENSION) “active; positive”; (Test System: AMES SALMONELLA TYPHIMURIUM, Strain/Indicator: TA98(NR), Metabolic Activation: NONE, Method: PREINCUBATION) “inactive; negative”; (Test System: AMES SALMONELLA TYPHIMURIUM, Strain/Indicator: TA98(NR), Metabolic Activation: NONE, Method: STANDARD PLATE) “active; positive”. Further, the mutagenic call is “active; positive” (Test System: AMES SALMONELLA TYPHIMURIUM, Strain/Indicator: TA98(NR), Metabolic Activation: RAT LIVER S-9 (15%), Method: PREINCUBATION); “active; positive” (Test System: AMES SALMONELLA TYPHIMURIUM, Strain/Indicator: TA98(NR), Metabolic Activation: RAT LIVER S-9, 3-METHYLCHOLANTHRENE (15%), Method: PREINCUBATION); “active; positive” (Test System: AMES SALMONELLA TYPHIMURIUM, Strain/Indicator: TA98(NR), Metabolic Activation: RAT LIVER S-9, BETA-NAPHTHAFLAVONE (15%), Method: PREINCUBATION); “active; positive” (Test System: AMES SALMONELLA TYPHIMURIUM, Strain/Indicator: TA98(NR), Metabolic Activation: RAT LIVER S-9, PCB (10%), Method: PREINCUBATION); “active; positive” (Test System: AMES SALMONELLA TYPHIMURIUM, Strain/Indicator: TA98(NR), Metabolic Activation: RAT LIVER S-9, PHENOBARBITAL (15%), Method: PREINCUBATION); “active; positive” (Test System: AMES SALMONELLA TYPHIMURIUM, Strain/Indicator: TA98(NR), Metabolic Activation: RAT, LIVER, S-9, AROCLOR 1254, Method: STANDARD PLATE). Besides, the mutagenic call (Test System: AMES SALMONELLA TYPHIMURIUM, Strain/Indicator: TA98, Metabolic Activation: NONE, Method: MICROSUSPENSION) was “active; positive”; the mutagenic call (Test System: AMES SALMONELLA TYPHIMURIUM, Strain/Indicator: TA98, Metabolic Activation: NONE, Method: PREINCUBATION) is “active; positive”; the mutagenic call under setting [1] is “active; positive”; the mutagenic call (Test System: AMES SALMONELLA TYPHIMURIUM, Strain/Indicator: TA98, Metabolic Activation: RAT, LIVER, S-9, AROCLOR 1254, Method: MICROSUSPENSION) was “active; positive”; the mutagenic call under setting [2] is “active; positive”; the mutagenic call (Test System: AMES SALMONELLA TYPHIMURIUM, Strain/Indicator: TA100, Metabolic Activation: NONE, Method: MICROSUSPENSION) is “active; positive”. The mutagenic call (Test System: AMES SALMONELLA TYPHIMURIUM, Strain/Indicator: TA100, Metabolic Activation: NONE, Method: PREINCUBATION) is “active; positive”; the mutagenic call under setting [3] was “active; positive”; the mutagenic call (Test System: AMES SALMONELLA TYPHIMURIUM, Strain/Indicator: TA100, Metabolic Activation: RAT LIVER S-9, 3-METHYLCHOLANTHRENE (15%), Method: PREINCUBATION) is “active; positive”; the mutagenic call (Test System: AMES SALMONELLA TYPHIMURIUM, Strain/Indicator: TA100, Metabolic Activation: RAT, LIVER, S-9, AROCLOR 1254, Method: MICROSUSPENSION) is “active; positive”; the mutagenic call under setting [4] was “active; positive”; the mutagenic call under setting [5] is “active; positive”. For the same compound, the mutagenic call is “active; positive” (Test System: AMES SALMONELLA TYPHIMURIUM, Strain/Indicator: TA1535, Metabolic Activation: RAT, LIVER, S-9, AROCLOR 1254, Method: STANDARD PLATE); “active; positive” under setting [6]; “active; positive” (Test System: AMES SALMONELLA TYPHIMURIUM, Strain/Indicator: TA1537, Metabolic Activation: RAT, LIVER, S-9, AROCLOR 1254, Method: STANDARD PLATE); “active; positive” under setting [7]; “active; positive” (Test System: AMES SALMONELLA TYPHIMURIUM, Strain/Indicator: TA1538, Metabolic Activation: RAT, LIVER, S-9, AROCLOR 1254, Method: STANDARD PLATE); “inactive; negative” (Test System: AMES SALMONELLA TYPHIMURIUM, Strain/Indicator: TA7001, Metabolic Activation: NONE, Method: PREINCUBATION). The mutagenic call is, setting by setting: (Test System: AMES SALMONELLA TYPHIMURIUM, Strain/Indicator: TA7001, Metabolic Activation: RAT LIVER S-9, 3-METHYLCHOLANTHRENE (15%), Method: PREINCUBATION) “inactive; negative”; (Test System: AMES SALMONELLA TYPHIMURIUM, Strain/Indicator: TA7002, Metabolic Activation: RAT LIVER S-9, 3-METHYLCHOLANTHRENE (15%), Method: PREINCUBATION) “active; positive”; (Test System: AMES SALMONELLA TYPHIMURIUM, Strain/Indicator: TA7003, Metabolic Activation: NONE, Method: PREINCUBATION) “inactive; negative”; (Test System: AMES SALMONELLA TYPHIMURIUM, Strain/Indicator: TA7003, Metabolic Activation: RAT LIVER S-9, 3-METHYLCHOLANTHRENE (15%), Method: PREINCUBATION) “inactive; negative”; (Test System: AMES SALMONELLA TYPHIMURIUM, Strain/Indicator: TA7004, Metabolic Activation: RAT LIVER S-9, 3-METHYLCHOLANTHRENE (15%), Method: PREINCUBATION) “active; positive”; (Test System: AMES SALMONELLA TYPHIMURIUM, Strain/Indicator: TA7005, Metabolic Activation: RAT LIVER S-9, 3-METHYLCHOLANTHRENE (15%), Method: PREINCUBATION) “active; positive”. For the same compound, the mutagenic call (Test System: AMES SALMONELLA TYPHIMURIUM, Strain/Indicator: TA7006, Metabolic Activation: NONE, Method: PREINCUBATION) is “inactive; negative” and the mutagenic call (Test System: AMES SALMONELLA TYPHIMURIUM, Strain/Indicator: TA7006, Metabolic Activation: RAT LIVER S-9, 3-METHYLCHOLANTHRENE (15%), Method: PREINCUBATION) is “active; positive”.
Consider `Cc1nc(-c2ccc([N+](=O)[O-])o2)cs1`, for which the mutagenic call (Test System: AMES SALMONELLA TYPHIMURIUM, Strain/Indicator: TA100, Metabolic Activation: RAT, LIVER, S-9, KC500 OR PHENOBARBITAL, Method: LIQUID SUSPENSION) is “active; positive”.
As to `[Cl][Sn]([c]1ccccc1)([c]1ccccc1)[c]1ccccc1`, the mutagenic call is “inactive; negative” (Test System: AMES SALMONELLA TYPHIMURIUM, Strain/Indicator: TA98, Metabolic Activation: NONE, Method: SUSPENSION/PLATE) and “inactive; negative” (Test System: AMES SALMONELLA TYPHIMURIUM, Strain/Indicator: TA100, Metabolic Activation: NONE, Method: SUSPENSION/PLATE).
`CSCCC(=O)N1[C@@H](c2ccccc2O)SC[C@H]1C(=O)O`: the mutagenic call is, setting by setting: under setting [1], “inactive; negative”; under setting [3], “inactive; negative”; under setting [5], “inactive; negative”; under setting [6], “inactive; negative”; under setting [7], “inactive; negative”; (Test System: E. COLI, Strain/Indicator: WP2, Metabolic Activation: NONE, Method: STANDARD PLATE) “inactive; negative”. Moreover, the mutagenic call (Test System: E. COLI, Strain/Indicator: WP2 UVRA, Metabolic Activation: NONE, Method: STANDARD PLATE) is “inactive; negative”.
Consider `CC(=O)c1cccn1[N+](=O)[O-]`, for which the mutagenic call runs as follows: under setting [1], “active; positive”; under setting [2], “active; positive”; under setting [3], “active; positive”; under setting [4], “active; positive”.
Take `CS(=O)CCCC/C(=N\OS(=O)(=O)O)S[C@@H]1O[C@H](CO)[C@@H](O)[C@H](O)[C@H]1O` (stereo not given in full): where the note is “End Point: IN VITRO MICRONUCLEUS, Test System: HUMAN T-LYMPHOCYTES, Metabolic Activation: NONE”, the mutagenic call was “inactive; negative”.
`CC(=O)ON(OCc1ccc(C)cc1)C(=O)c1ccccc1`: the mutagenic call under setting [3] was “active; positive” and the mutagenic call (Test System: AMES SALMONELLA TYPHIMURIUM, Strain/Indicator: TA100, Metabolic Activation: RAT, S-9, AROCLOR, Method: STANDARD PLATE) is “active; positive”.
